According to patent US9637491B2, “Pyrazolo[4,3-D]pyrimidines as kinase inhibitors” (Origenis GmbH, priority 2012, dated 2017):

Biological target: T1, SYK kinase (Homo sapiens, UniProt P43405)
T1 construct: purchased Invitrogen, Carlsbad
Assay: SYK assay (OMNIA Kinase Assay, Invitrogen)
Assay type: biochemical
Details: SYK Activities; 1 mM ATP, 10 μM Omnia Peptide Substrate Tyr 7, 30° C.
Protocol: In the assay OMNIA® KINASE ASSAY by Invitrogen Corporation (Carlsbad) the effect of invention of a compound on the phosphorylation is determined by measurement of fluorescence intensity of a chelation-enhanced fluorophore called SOX. Upon phosphorylation of the peptide by the kinase of interest, Mg2+ is chelated to form a bridge between the SOX moiety and the phosphate group that is transferred to the specific tyrosine on the peptide. The fluorescence intensity is directly proportional to the amount of peptide phosphorylation.
To the wells of an 384 well small volume plate (Greiner, Frickenhausen) are added (i) the compound under test in 5% DMSO/distilled water (2 μl), (ii) 16 μl of the master mix containing ATP, DTT, Kinase Reaction Buffer, Omina Peptide Substrate Tyr 7 resulting in a final concentration of 1 mM ATP, 0.2 mM DTT and 10 μM Peptide Substrate. The Master Mix and the assay plate was incubated to reaction temperature before the measurement (30° C.). The reaction was started with addition of (iii) 2 μl 4 μg/ml SYK kinase (Invitrogen, Carlsbad). During measurement fluorescence intensitiy readings were collected using a TECAN M1000 at a wavelength of λex 360/λem 485 nm every 30 s for 30 minutes. The reaction velocity was plotted versus the inhibitor concentration to determine the IC50 using XLFit 5.0 (IDBS, Guildford) to fit to a sigmoidal dose response curve.

| Structure (SMILES) | IC50 [µM] |
| --- | --- |
| COc1ccc(Nc2nc(-c3ccccc3NS(C)(=O)=O)nc3cn[nH]c23)cc1OC [Example 2, N-(2-(7-((3,4-dimethoxyphenyl)amino)-1H-pyrazolo[4,3-d]pyrimidin-5-yl)phenyl)methanesulfonamide] | 0.1 to 1 |
| COc1ccc(Nc2nc(-c3ccc(C)s3)nc3cn[nH]c23)cc1OC [Example 8, N-(3,4-dimethoxyphenyl)-5-(5-methylthiophen-2-yl)-1H-pyrazolo[4,3-d]pyrimidin-7-amine] | 0.1 to 1 |
| Cc1ccc(-c2nc(Nc3ccc(N4CCOCC4)cc3)c3[nH]ncc3n2)s1 [Example 9, 5-(5-methylthiophen-2-yl)-N-(4-morpholinophenyl)-1H-pyrazolo[4,3-d]pyrimidin-7-amine] | 0.01 to 0.1 |
| CC(C)(C)N1CCN(c2ccc(Nc3nc(-c4c(F)cccc4F)nc4cn[nH]c34)cc2)CC1 [Example 10, N-(4-(4-(tert-butyl)piperazin-1-yl)phenyl)-5-(2,6-difluorophenyl)-1H-pyrazolo[4,3-d]pyrimidin-7-amine] | 0.01 to 0.1 |
| Fc1cc(Nc2nc(-c3c(F)cccc3F)nc3cn[nH]c23)ccc1N1CCOCC1 [Example 11, 5-(2,6-difluorophenyl)-N-(3-fluoro-4-morpholinophenyl)-1H-pyrazolo[4,3-d]pyrimidin-7-amine] | 0.1 to 1 |
| COc1cc(Nc2nc(-c3c(F)cccc3F)nc3cn[nH]c23)ccc1N1CCOCC1 [Example 12, 5-(2,6-difluorophenyl)-N-(3-methoxy-4-morpholinophenyl)-1H-pyrazolo[4,3-d]pyrimidin-7-amine] | < 0.01 |
| CC(=O)N1CCN(c2ccc(Nc3nc(-c4c(F)cccc4F)nc4cn[nH]c34)cc2)CC1 [Example 13, 1-(4-(4-((5-(2,6-difluorophenyl)-1H-pyrazolo[4,3-d]pyrimidin-7-yl)amino)phenyl)piperazin-1-yl)ethan-1-one] | 0.1 to 1 |
| CC(=O)N1CCN(c2ccc(Nc3nc(-c4cccc(N)c4)nc4cn[nH]c34)cc2)CC1 [Example 14, 1-(4-(4-((5-(3-aminophenyl)-1H-pyrazolo[4,3-d]pyrimidin-7-yl)amino)phenyl)piperazin-1-yl)ethan-1-one] | 0.1 to 1 |
| O=S1(=O)CCc2ccc(Nc3nc(-c4cccs4)nc4cn[nH]c34)cc21 [Example 17, 6-((5-(thiophen-2-yl)-1H-pyrazolo[4,3-d]pyrimidin-7-yl)amino)-2,3-dihydrobenzo[b]thiophene 1,1-dioxide] | 0.1 to 1 |
| c1cc(N2CCOCC2)ccc1Nc1nc(C2CC2)nc2cn[nH]c12 [Example 18, 5-cyclopropyl-N-(4-morpholinophenyl)-1H-pyrazolo[4,3-d]pyrimidin-7-amine] | < 0.01 |
| COc1ccc(Nc2nc(C3CC3)nc3cn[nH]c23)cc1OC [Example 19, 5-cyclopropyl-N-(3,4-dimethoxyphenyl)-1H-pyrazolo[4,3-d]pyrimidin-7-amine] | 0.01 to 0.1 |
| O=C1COc2ccc(Nc3nc(C4CC4)nc4cn[nH]c34)cc2N1 [Example 21, 6-((5-cyclopropyl-1H-pyrazolo[4,3-d]pyrimidin-7-yl)amino)-2H-benzo[b][1,4]oxazin-3(4H)-one] | 0.01 to 0.1 |
| O=C1CCc2ccc(Nc3nc(C4CC4)nc4cn[nH]c34)cc2N1 [Example 22, 7-((5-cyclopropyl-1H-pyrazolo[4,3-d]pyrimidin-7-yl)amino)-3,4-dihydroquinolin-2(1H)-one] | < 0.01 |
| CC(C)(C)N1CCN(c2ccc(Nc3nc(-c4ccccc4F)nc4cn[nH]c34)cc2)CC1 [Example 23, N-(4-(4-(tert-butyl)piperazin-1-yl)phenyl)-5-(2-fluorophenyl)-1H-pyrazolo[4,3-d]pyrimidin-7-amine] | 0.1 to 1 |
| Fc1ccccc1-c1nc(Nc2ccc(N3CCOCC3)c(F)c2)c2[nH]ncc2n1 [Example 24, N-(3-fluoro-4-morpholinophenyl)-5-(2-fluorophenyl)-1H-pyrazolo[4,3-d]pyrimidin-7-amine] | 0.1 to 1 |
| COc1cc(Nc2nc(-c3ccccc3F)nc3cn[nH]c23)ccc1N1CCOCC1 [Example 25, 5-(2-fluorophenyl)-N-(3-methoxy-4-morpholinophenyl)-1H-pyrazolo[4,3-d]pyrimidin-7-amine] | 0.01 to 0.1 |
| CC(=O)N1CCN(c2ccc(Nc3nc(-c4ccccc4F)nc4cn[nH]c34)cc2)CC1 [Example 26, 1-(4-(4-((5-(2-fluorophenyl)-1H-pyrazolo[4,3-d]pyrimidin-7-yl)amino)phenyl)piperazin-1-yl)ethan-1-one] | 0.1 to 1 |
| CC(C)(C#N)c1ccc(Nc2nc(-c3c(F)cccc3F)nc3cn[nH]c23)cc1 [Example 28, 2-(4-((5-(2,6-difluorophenyl)-1H-pyrazolo[4,3-d]pyrimidin-7-yl)amino)phenyl)-2-methylpropanenitrile] | 0.1 to 1 |
| CN1CCN(C2CCN(c3ccc(Nc4nc(-c5ccccc5NS(C)(=O)=O)nc5cn[nH]c45)cc3)CC2)CC1 [Example 29, N-(2-(7-((4-(4-(4-methylpiperazin-1-yl)piperidin-1-yl)phenyl)amino)-1H-pyrazolo[4,3-d]pyrimidin-5-yl)phenyl)methanesulfonamide] | 0.01 to 0.1 |
| CC(=O)N1CCN(c2ccc(Nc3nc(C4CC4)nc4cn[nH]c34)cc2)CC1 [Example 33, 1-(4-(4-((5-cyclopropyl-1H-pyrazolo[4,3-d]pyrimidin-7-yl)amino)phenyl)piperazin-1-yl)ethan-1-one] | 0.1 to 1 |
| Fc1cc(Nc2nc(C3CC3)nc3cn[nH]c23)ccc1N1CCOCC1 [Example 34, 5-cyclopropyl-N-(3-fluoro-4-morpholinophenyl)-1H-pyrazolo[4,3-d]pyrimidin-7-amine] | 0.1 to 1 |
| COc1cc(Nc2nc(C3CC3)nc3cn[nH]c23)ccc1N1CCOCC1 [Example 35, 5-cyclopropyl-N-(3-methoxy-4-morpholinophenyl)-1H-pyrazolo[4,3-d]pyrimidin-7-amine] | < 0.01 |
| COc1cc(Nc2nc(-c3cccs3)nc3cn[nH]c23)ccc1N1CCOCC1 [Example 37, N-(3-methoxy-4-morpholinophenyl)-5-(thiophen-2-yl)-1H-pyrazolo[4,3-d]pyrimidin-7-amine] | 0.1 to 1 |
| O=C1OCCN1c1ccc(Nc2nc(-c3cccs3)nc3cn[nH]c23)cc1 [Example 38] | 0.1 to 1 |
| CC(C)(C)N1CCN(c2ccc(Nc3nc(-c4cccc(NS(C)(=O)=O)c4)nc4cn[nH]c34)cc2)CC1 [Example 39] | 0.1 to 1 |
| COc1cc(Nc2nc(-c3cccc(NS(C)(=O)=O)c3)nc3cn[nH]c23)ccc1N1CCOCC1 [Example 41, N-(3-(7-((3-methoxy-4-morpholinophenyl)amino)-1H-pyrazolo[4,3-d]pyrimidin-5-yl)phenyl)methanesulfonamide] | 0.1 to 1 |
| CC(C)(C)N1CCN(c2ccc(Nc3nc(-c4ccc5cn[nH]c5c4)nc4cn[nH]c34)cc2)CC1 [Example 45, N-(4-(4-(tert-butyl)piperazin-1-yl)phenyl)-5-(1H-indazol-6-yl)-1H-pyrazolo[4,3-d]pyrimidin-7-amine] | < 0.01 |
| Fc1cc(Nc2nc(-c3ccc4cn[nH]c4c3)nc3cn[nH]c23)ccc1N1CCOCC1 [Example 46, N-(3-fluoro-4-morpholinophenyl)-5-(1H-indazol-6-yl)-1H-pyrazolo[4,3-d]pyrimidin-7-amine] | 0.01 to 0.1 |
| c1nc(-c2nc(Nc3ccc(N4CCOCC4)cc3)c3[nH]ncc3n2)co1 [Example 48, N-(4-morpholinophenyl)-5-(oxazol-4-yl)-1H-pyrazolo[4,3-d]pyrimidin-7-amine] | 0.1 to 1 |
